Reference: PubChem BioAssay (NCI)
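A five-concentration, 48-hour dose response in 96-well plates underlies each endpoint, interpolated linearly between surrounding concentrations. GI50 is the concentration that inhibits growth by half. TGI denotes the concentration required for complete inhibition of growth.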

Key:
Experiment in all cases: inhibition of tumour cell growth, NCI panel, 48 h
OVCAR-4 ovarian = system: OVCAR-4 ovarian
SK-MEL-5 melanoma = system: SK-MEL-5 melanoma
RXF 393 renal = system: RXF 393 renal
CAKI-1 renal = system: CAKI-1 renal
HOP-62 NSCLC = system: HOP-62 NSCLC
CCRF-CEM leukemia = system: CCRF-CEM leukemia
COLO 205 colon = system: COLO 205 colon
U251 CNS = system: U251 CNS
MOLT-4 leukemia = system: MOLT-4 leukemia
SR leukemia = system: SR leukemia
UACC-62 melanoma = system: UACC-62 melanoma
HL-60(TB) leukemia = system: HL-60(TB) leukemia
IGROV1 ovarian = system: IGROV1 ovarian
SNB-75 CNS = system: SNB-75 CNS
MDA-MB-435 = system: MDA-MB-435
ACHN renal = system: ACHN renal
SW-620 colon = system: SW-620 colon
RPMI-8226 leukemia = system: RPMI-8226 leukemia
SF-268 CNS = system: SF-268 CNS
A549 NSCLC = system: A549 NSCLC
MCF7 breast = system: MCF7 breast
K-562 leukemia = system: K-562 leukemia
786-0 renal = system: 786-0 renal
OVCAR-5 ovarian = system: OVCAR-5 ovarian
NCI-H23 lung = system: NCI-H23 lung
NCI/ADR-RES ovarian = system: NCI/ADR-RES ovarian
M14 melanoma = system: M14 melanoma
T-47D breast = system: T-47D breast
SK-MEL-2 melanoma = system: SK-MEL-2 melanoma
NCI-H460 lung = system: NCI-H460 lung
SK-MEL-28 melanoma = system: SK-MEL-28 melanoma
SK-OV-3 ovarian = system: SK-OV-3 ovarian
MALME-3M melanoma = system: MALME-3M melanoma
HS 578T breast = system: HS 578T breast
PC-3 prostate = system: PC-3 prostate
HCT-15 colon = system: HCT-15 colon
UO-31 renal = system: UO-31 renal
NCI-H522 lung = system: NCI-H522 lung
SF-295 CNS = system: SF-295 CNS
SNB-19 CNS = system: SNB-19 CNS
NCI-H226 lung = system: NCI-H226 lung
LOX IMVI melanoma = system: LOX IMVI melanoma
SN12C renal = system: SN12C renal
A498 renal = system: A498 renal
HT29 colon = system: HT29 colon
OVCAR-8 ovarian = system: OVCAR-8 ovarian
DU-145 prostate = system: DU-145 prostate
HOP-92 NSCLC = system: HOP-92 NSCLC
HCT-116 colon = system: HCT-116 colon
TK-10 renal = system: TK-10 renal
BT-549 breast = system: BT-549 breast
UACC-257 melanoma = system: UACC-257 melanoma
OVCAR-3 ovarian = system: OVCAR-3 ovarian
KM12 colon = system: KM12 colon
SF-539 CNS = system: SF-539 CNS
HCC-2998 colon = system: HCC-2998 colon
EKVX NSCLC = system: EKVX NSCLC
MDA-MB-231 breast = system: MDA-MB-231 breast

**Q.** How did the TGI (OVCAR-4 ovarian) turn out when `CC1=C2C(=O)c3ccccc3C2=C(C)S(=O)(=O)O1` was run?
**A.** > 10 µM

**Q.** And the TGI (SK-MEL-5 melanoma)?
**A.** > 10 µM

**Q.** And the TGI (RXF 393 renal)?
**A.** > 10 µM

**Q.** What about the TGI (CAKI-1 renal) of the same compound?
**A.** > 10 µM

**Q.** And the TGI (HOP-62 NSCLC)?
**A.** > 10 µM

**Q.** And the TGI (CCRF-CEM leukemia)?
**A.** > 10 µM

**Q.** What about the TGI (COLO 205 colon) of the same compound?
**A.** > 10 µM

**Q.** And the TGI (U251 CNS)?
**A.** > 10 µM

**Q.** What about the TGI (MOLT-4 leukemia) of the same compound?
**A.** > 10 µM

**Q.** What about the TGI (SR leukemia) of the same compound?
**A.** > 10 µM

**Q.** And the TGI (UACC-62 melanoma)?
**A.** > 10 µM

**Q.** And the TGI (HL-60(TB) leukemia)?
**A.** > 10 µM

**Q.** And the TGI (IGROV1 ovarian)?
**A.** > 10 µM

**Q.** And the TGI (SNB-75 CNS)?
**A.** > 10 µM

**Q.** What about the TGI (MDA-MB-435) of the same compound?
**A.** > 10 µM

**Q.** And the TGI (ACHN renal)?
**A.** > 10 µM

**Q.** And the TGI (SW-620 colon)?
**A.** > 10 µM

**Q.** What about the TGI (RPMI-8226 leukemia) of the same compound?
**A.** > 10 µM

**Q.** And the TGI (SF-268 CNS)?
**A.** > 10 µM

**Q.** What about the TGI (A549 NSCLC) of the same compound?
**A.** > 10 µM

**Q.** And the TGI (MCF7 breast)?
**A.** > 10 µM

**Q.** What about the TGI (K-562 leukemia) of the same compound?
**A.** > 10 µM

**Q.** And the TGI (786-0 renal)?
**A.** > 10 µM

**Q.** And the TGI (OVCAR-5 ovarian)?
**A.** > 10 µM

**Q.** What about the TGI (NCI-H23 lung) of the same compound?
**A.** > 10 µM

**Q.** What about the TGI (NCI/ADR-RES ovarian) of the same compound?
**A.** > 10 µM

**Q.** And the TGI (M14 melanoma)?
**A.** > 10 µM

**Q.** What about the TGI (T-47D breast) of the same compound?
**A.** > 10 µM

**Q.** And the TGI (SK-MEL-2 melanoma)?
**A.** > 10 µM

**Q.** And the TGI (NCI-H460 lung)?
**A.** > 10 µM

**Q.** What about the TGI (SK-MEL-28 melanoma) of the same compound?
**A.** > 10 µM

**Q.** What about the TGI (SK-OV-3 ovarian) of the same compound?
**A.** > 10 µM

**Q.** What about the TGI (MALME-3M melanoma) of the same compound?
**A.** > 10 µM

**Q.** For `O=c1oc(-c2ccc(O)c(O)c2)cc2cccc(O)c12`, which TGI (HS 578T breast) is on record?
**A.** 73.2 µM

**Q.** What about the TGI (PC-3 prostate) of the same compound?
**A.** 47.3 µM

**Q.** What about the TGI (OVCAR-4 ovarian) of the same compound?
**A.** 69.2 µM

**Q.** What about the TGI (SK-MEL-5 melanoma) of the same compound?
**A.** 23.4 µM

**Q.** And the TGI (HCT-15 colon)?
**A.** > 100 µM

**Q.** What about the TGI (RXF 393 renal) of the same compound?
**A.** 69.3 µM

**Q.** What about the TGI (UO-31 renal) of the same compound?
**A.** > 59.4 µM

**Q.** And the TGI (NCI-H522 lung)?
**A.** > 50.8 µM

**Q.** And the TGI (SF-295 CNS)?
**A.** 80.2 µM

**Q.** And the TGI (CAKI-1 renal)?
**A.** 38.7 µM

**Q.** And the TGI (HOP-62 NSCLC)?
**A.** 47.3 µM

**Q.** And the TGI (SNB-19 CNS)?
**A.** > 76.9 µM

**Q.** And the TGI (CCRF-CEM leukemia)?
**A.** > 46.1 µM

**Q.** And the TGI (COLO 205 colon)?
**A.** > 48.3 µM

**Q.** What about the GI50 (NCI-H226 lung) of the same compound?
**A.** 15.2 µM

**Q.** What about the TGI (NCI-H226 lung) of the same compound?
**A.** 58.7 µM

**Q.** What about the GI50 (U251 CNS) of the same compound?
**A.** 17.1 µM

**Q.** And the TGI (U251 CNS)?
**A.** 79.1 µM

**Q.** What about the GI50 (LOX IMVI melanoma) of the same compound?
**A.** 12.5 µM

**Q.** What about the TGI (LOX IMVI melanoma) of the same compound?
**A.** 37.2 µM

**Q.** And the TGI (MOLT-4 leukemia)?
**A.** 52 µM

**Q.** And the GI50 (UACC-62 melanoma)?
**A.** 16.6 µM

**Q.** What about the TGI (UACC-62 melanoma) of the same compound?
**A.** 37.3 µM

**Q.** What about the TGI (HL-60(TB) leukemia) of the same compound?
**A.** 50.2 µM

**Q.** What about the TGI (IGROV1 ovarian) of the same compound?
**A.** > 64.7 µM

**Q.** And the TGI (SNB-75 CNS)?
**A.** > 100 µM

**Q.** And the TGI (MDA-MB-435)?
**A.** 60.3 µM

**Q.** And the TGI (ACHN renal)?
**A.** > 81.7 µM

**Q.** What about the TGI (SW-620 colon) of the same compound?
**A.** 78.2 µM

**Q.** And the TGI (SN12C renal)?
**A.** 46.1 µM

**Q.** What about the TGI (RPMI-8226 leukemia) of the same compound?
**A.** 29.5 µM

**Q.** What about the TGI (SF-268 CNS) of the same compound?
**A.** > 85.2 µM

**Q.** And the TGI (A549 NSCLC)?
**A.** > 100 µM

**Q.** And the TGI (A498 renal)?
**A.** 42.4 µM

**Q.** What about the GI50 (HT29 colon) of the same compound?
**A.** 28.1 µM

**Q.** What about the TGI (HT29 colon) of the same compound?
**A.** > 100 µM

**Q.** What about the TGI (OVCAR-8 ovarian) of the same compound?
**A.** > 100 µM

**Q.** What about the TGI (MCF7 breast) of the same compound?
**A.** > 54.1 µM

**Q.** And the TGI (DU-145 prostate)?
**A.** 70.2 µM

**Q.** What about the TGI (HOP-92 NSCLC) of the same compound?
**A.** 43.4 µM

**Q.** And the TGI (K-562 leukemia)?
**A.** 49.2 µM

**Q.** And the TGI (786-0 renal)?
**A.** 85.9 µM

**Q.** What about the TGI (OVCAR-5 ovarian) of the same compound?
**A.** 86.5 µM

**Q.** What about the TGI (NCI-H23 lung) of the same compound?
**A.** 53.6 µM

**Q.** What about the TGI (NCI/ADR-RES ovarian) of the same compound?
**A.** 51.3 µM

**Q.** What about the TGI (HCT-116 colon) of the same compound?
**A.** 23.7 µM

**Q.** And the TGI (TK-10 renal)?
**A.** > 49.1 µM

**Q.** What about the TGI (BT-549 breast) of the same compound?
**A.** 49 µM

**Q.** What about the TGI (M14 melanoma) of the same compound?
**A.** 51.8 µM

**Q.** What about the TGI (UACC-257 melanoma) of the same compound?
**A.** 61.3 µM

**Q.** And the TGI (T-47D breast)?
**A.** 9.46 µM

**Q.** And the TGI (SK-MEL-2 melanoma)?
**A.** 69.7 µM

**Q.** And the TGI (NCI-H460 lung)?
**A.** > 68.2 µM

**Q.** And the TGI (OVCAR-3 ovarian)?
**A.** > 62.4 µM

**Q.** What about the GI50 (SK-MEL-28 melanoma) of the same compound?
**A.** 24.6 µM

**Q.** And the TGI (SK-MEL-28 melanoma)?
**A.** 87.3 µM

**Q.** What about the TGI (SK-OV-3 ovarian) of the same compound?
**A.** 74.9 µM

**Q.** And the TGI (KM12 colon)?
**A.** 32.1 µM

**Q.** What about the TGI (MALME-3M melanoma) of the same compound?
**A.** > 86.5 µM

**Q.** And the TGI (SF-539 CNS)?
**A.** > 85.6 µM

**Q.** What about the TGI (HCC-2998 colon) of the same compound?
**A.** 37 µM

**Q.** What about the TGI (EKVX NSCLC) of the same compound?
**A.** 51.2 µM

**Q.** What about the GI50 (MDA-MB-231 breast) of the same compound?
**A.** 14.1 µM

**Q.** What about the TGI (MDA-MB-231 breast) of the same compound?
**A.** 46.9 µM
